Earlier results in patent US20040157848A1, “Methods and compositions for the treatment of herpes virus infections using cyclooxygenase-2 selective inhibitors or cyclooxygenase-2 inhibitors in combination with antiviral agents” (Pharmacia Corporation, priority 2002, published 2004).

Experiments:
herpes virus = conditions: supplementation with exogenous GSH, in vitro
[1] = tested on: cytomegalovirus induced reactive oxygen species; conditions: cytomegalovirus infected human smooth muscle

SMILES	inhibition of the replication of herpes virus (herpes virus)	cytomegalovirus induced reactive oxygen species [1]
N[C@@H](CCC(=O)N[C@@H](CS)C(=O)NCC(=O)O)C(=O)O [GSH, glutathione]	over 99%	–
CC(=O)Oc1ccccc1C(=O)O [aspirin]	–	reduces
